From patent publication US6127372A, “Sulfonamide inhibitors of aspartyl protease” (Vertex Pharmaceuticals, Incorporated, priority 1996, dated 2000) come the findings set out here.

Where two headings read alike, the source gives them in different places.

For this test, the target named is HIV-1 protease (Human immunodeficiency virus type 1 group M subtype B, UniProt P04585). In words: Inhibition constants against HIV-1 protease, method of Pennington et al. Type of test: biochemical.
The mark [1] stands for this setting: HIV-1 protease, method of Pennington et al., read-out: Ki.

As a reminder, the Ki is the dissociation constant of the complex between target and ligand, obtained from inhibition or displacement. Take `COc1ccc(S(=O)(=O)N(CC2CCCC2)C[C@H](O)CN(CCc2ccccc2)C(=O)O[C@H]2CCOC2)cc1` [Compound 1000]: the Ki under setting [1] came out at 100 nM.

Take `COc1ccc(S(=O)(=O)N(CC2CCCC2)C[C@@H](O)CN(CCc2ccccc2)C(=O)O[C@H]2CCOC2)cc1` [Compound 1001]: the Ki (read-out: Ki) worked out at 30 nM.

As for `COc1ccc(S(=O)(=O)N(CC(C)C)CC(O)CNc2ccccc2C(=O)NC(C)(C)C)cc1` (stereo not drawn) [Compound 1002], the Ki under setting [1] was 16000 nM.

Consider `COc1ccc(S(=O)(=O)N(CC2CCCC2)C[C@@H](O)CN(CCC(C)C)C(=O)O[C@H]2CCOC2)cc1` [Compound 1003], for which, under setting [1], the Ki is 1200 nM.

`COc1ccc(S(=O)(=O)N(CC2CCCC2)C[C@@H](O)CN(CC(C)C)C(=O)O[C@H]2CCOC2)cc1` [Compound 1004]: the Ki under setting [1] turned out to be 1300 nM.

Take `COc1ccc(S(=O)(=O)N(CC2CCCC2)C[C@@H](O)CN(CCCc2ccccc2)C(=O)O[C@H]2CCOC2)cc1` [Compound 1006]: under setting [1], the Ki was determined as 470 nM.

For `O=C(O[C@H]1CCOC1)N(CCc1ccccc1)C[C@H](O)CN(CC1CCCC1)S(=O)(=O)c1ccc(O)cc1` [Compound 1007], under setting [1], the inhibition constant (Ki) came out at 35 nM.

Take `Nc1ccc(S(=O)(=O)N(CC2CCCC2)C[C@@H](O)CN(CCc2ccccc2)C(=O)O[C@H]2CCOC2)cc1` [Compound 1008]: the inhibition constant (Ki) under setting [1] is 260 nM.

As for `Nc1cccc(S(=O)(=O)N(CC2CCCC2)C[C@@H](O)CN(CCc2ccccc2)C(=O)O[C@H]2CCOC2)c1` [Compound 1009], the inhibition constant (Ki) under setting [1] amounted to 120 nM.

Consider `COc1ccc(S(=O)(=O)N(CC2CCCC2)C[C@@H](O)CN(CCC2CCCCC2)C(=O)O[C@H]2CCOC2)cc1` [Compound 1011], for which, under setting [1], the Ki was 110 nM.

Regarding `CC(C)CN(C[C@@H](O)CN(CCc1ccccc1)C(=O)O[C@H]1CCOC1)S(=O)(=O)c1cccc(N)c1` [Compound 1012], the Ki under setting [1] amounted to 200 nM.

`Nc1cccc(S(=O)(=O)N(CC2CCCC2)C[C@@H](O)CN(CCc2ccccc2)C(=O)O[C@@H]2COC3OCCC32)c1` (stereo partly drawn) [Compound 1013]: the Ki under setting [1] was found to be 50 nM.

Turning to `Nc1cccc(S(=O)(=O)N(CC2CCCC2)C[C@@H](O)CN(CCc2ccccc2)C(=O)OC2COCOC2)c1` [Compound 1014], the inhibitory constant (Ki) under setting [1] stood at 130 nM.

Take `COc1ccc(S(=O)(=O)N(CC2CCCC2)C[C@@H](O)CN(CCc2ccc(O)cc2)C(=O)O[C@H]2CCOC2)cc1` [Compound 1016]: under setting [1], the Ki is 75 nM.

For `COc1ccc(S(=O)(=O)N(CC2CCCC2)C[C@@H](O)CN(CCc2ccc(O)c(O)c2)C(=O)O[C@H]2CCOC2)cc1` [Compound 1017], the Ki under setting [1] is 110 nM.

Regarding `COc1ccc(S(=O)(=O)N(CC2CCCC2)C[C@@H](O)CN(CCc2ccccc2)C(=O)OCc2ccccc2)cc1` [Compound 1019], the inhibitory constant (Ki) under setting [1] was 20 nM.

As for `COc1ccc(S(=O)(=O)N(CC2CCCC2)C[C@@H](O)CN(CCc2ccccc2)C(=O)Cc2ccccc2)cc1` [Compound 1020], under setting [1], the inhibitory constant (Ki) is 170 nM.

Regarding `C=CCOC(=O)N(CCc1ccccc1)C[C@H](O)CN(CC1CCCC1)S(=O)(=O)c1ccc(OC)cc1` [Compound 1021], the inhibitory constant (Ki) under setting [1] was found to be 70 nM.

`COc1ccc(S(=O)(=O)N(CC2CCCC2)C[C@@H](O)CN(CCc2ccccc2)C(=O)Oc2ccccc2)cc1` [Compound 1022] came in with a Ki of 170 nM.

`O=C(OCc1cccnc1)N(CCc1ccccc1)C[C@H](O)CN(CC1CCCC1)S(=O)(=O)c1ccccc1` [Compound 1023]: under setting [1], the Ki came to 52 nM.

On to `COc1ccc(S(=O)(=O)N(CC2CCCC2)C[C@@H](O)CN(CCc2ccccc2)C(=O)c2cccc(O)c2C)cc1` [Compound 1024], for which the Ki under setting [1] amounted to 66 nM.

For `COc1ccc(S(=O)(=O)N(CC2CCCC2)C[C@@H](O)CN(CCc2cccnc2)C(=O)OCc2cccnc2)cc1` [Compound 1025], the Ki under setting [1] was 270 nM.

On to `COc1ccc(S(=O)(=O)N(CC2CCCC2)C[C@@H](O)CN(CCc2ccccc2)C(=O)c2ccccc2)cc1` [Compound 1026], for which the Ki under setting [1] is 20 nM.

Turning to `COc1ccc(S(=O)(=O)N(CC(O)CN(CCc2ccccc2)C(=O)[C@H](NC(=O)OCc2ccccc2)C(C)C)CC2CCCC2)cc1` (stereo partly drawn) [Compound 1027], the Ki under setting [1] is 7 nM.

Turning to `COc1ccc(S(=O)(=O)N(CC2CCCC2)C[C@@H](O)CN(CCc2ccccc2)CC(=O)c2ccccc2)cc1` [Compound 1028], the inhibition constant (Ki) under setting [1] came to 800 nM.

As to `CCCN(CC(=O)c1ccccc1)C[C@H](O)CN(CC1CCCC1)S(=O)(=O)c1ccc(OC)cc1` [Compound 1029], the Ki under setting [1] was found to be 3500 nM.

Turning to `COc1ccc(S(=O)(=O)N(CC(C)C)C[C@@H](O)CC(=O)N2CCN(C(=O)OCc3ccccc3)C[C@H]2C(=O)NC(C)(C)C)cc1` [Compound 1031], under setting [1], the inhibition constant Ki was found to be 1400 nM.

For `COc1ccc(S(=O)(=O)N(CC(C)C)C[C@@H](O)CCN2CCCC[C@H]2C(=O)NC(C)(C)C)cc1` [Compound 1033], the Ki under setting [1] is 1600 nM.

For `COc1ccc(S(=O)(=O)N(CC(C)C)C[C@@H](O)CCN(CC(C)C)S(=O)(=O)N(C)C)cc1` [Compound 1034], under setting [1], the Ki turned out to be 1100 nM.

In the case of `COc1ccc(S(=O)(=O)N(CCc2ccccc2)CC[C@H](O)CN(CC(C)C)S(=O)(=O)c2ccc(OC)cc2)cc1` [Compound 1035], under setting [1], the Ki came to 3600 nM.

In the case of `COc1ccc(S(=O)(=O)N(CC(C)C)C[C@@H](O)CCN(CCc2ccccc2)C(=O)OC2COC3OCCC23)cc1` (stereo partly drawn) [Compound 1036], the inhibition constant Ki under setting [1] amounted to 8000 nM.

Turning to `COc1ccc(S(=O)(=O)N(CC(C)C)C[C@@H](O)CCN(CCc2ccccc2)C(=O)O[C@H]2CCOC2)cc1` [Compound 1037], under setting [1], the Ki is more than 10000 nM.

Take `COc1ccc(S(=O)(=O)N(CC(C)C)C[C@H](O)CCN(CCc2ccccc2)C(=O)O[C@H]2CCOC2)cc1` [Compound 1038]: the inhibition constant (Ki) under setting [1] was more than 10000 nM.

For the molecule `COc1ccc(S(=O)(=O)N(CC(C)C)C[C@@H](O)CCN(CC2CCCC2)C(=O)O[C@H]2CCOC2)cc1` [Compound 1039], the Ki under setting [1] is more than 3000 nM.

In the case of `COc1ccc(S(=O)(=O)N(CC(C)C)C[C@H](O)CCN(CC2CCCC2)C(=O)O[C@H]2CCOC2)cc1` [Compound 1040], the Ki under setting [1] is more than 10000 nM.

With `COc1ccc(S(=O)(=O)N(CC(C)C)C[C@@H](O)CCN(CC2CCCC2)S(=O)(=O)c2cccc(N)c2)cc1` [Compound 1041], the inhibition constant Ki under setting [1] turned out to be 270 nM.

`Nc1cccc(S(=O)(=O)N(CC2CCCC2)C[C@@H](O)CN(CCc2ccccc2)C(=O)c2cccnc2)c1` [Compound 1044]: the inhibitory constant (Ki) under setting [1] was 220 nM.

Consider `Nc1cccc(S(=O)(=O)N(CC2CCCC2)C[C@@H](O)CN(CCc2ccccc2)C(=O)c2ccncc2)c1` [Compound 1045], for which, under setting [1], the Ki was found to be 14 nM.

On to `COc1ccc(S(=O)(=O)N(CC(O)CN2C(=O)OC[C@@H]2Cc2ccccc2)CC2CCCC2)cc1` (stereo partly drawn) [Compound 1046], for which the inhibitory constant (Ki) under setting [1] was found to be 1200 nM.

For the molecule `COc1ccc(S(=O)(=O)N(CC2CCCC2)C[C@@H](O)CN(CCc2ccccc2)C(C)=O)cc1` [Compound 1047], the inhibitory constant (Ki) under setting [1] was 1600 nM.

In the case of `COc1ccc(S(=O)(=O)N(CC(O)CN2CC(c3ccccc3)c3ccccc3C2=O)CC2CCCC2)cc1` (stereo not drawn) [Compound 1048], under setting [1], the inhibition constant Ki amounted to 3300 nM.

Regarding `COc1ccc(S(=O)(=O)N(CC(C)C)C[C@@H](O)CC(Cc2ccccc2)C(=O)N[C@H]2c3ccccc3C[C@H]2O)cc1` (stereo partly drawn) [LII], under setting [1], the Ki is 11 nM.

On to `COc1ccc(S(=O)(=O)N(CC(C)C)C[C@@H](O)CC(Cc2ccccc2)C(=O)NCC(C)C)cc1` (stereo partly drawn) [LI], for which, under setting [1], the inhibitory constant (Ki) is 5000 nM.

In the case of `COc1ccc(S(=O)(=O)N(CC[C@H](O)CN(CC(C)C)S(=O)(=O)c2ccc(OC)cc2)CC2CCCC2)cc1` [LVa], the Ki under setting [1] amounted to 167 nM.

As to `COc1ccc(S(=O)(=O)N(CC[C@H](O)CN2CCN(C(=O)OCc3ccccc3)C[C@H]2C(=O)NC(C)(C)C)CC(C)C)cc1` [LXXVI], the inhibition constant (Ki) under setting [1] was 2700 nM.

In the case of `COc1ccc(S(=O)(=O)N(CC[C@H](O)CN(CC(C)C)S(=O)(=O)c2ccc(OC)cc2)CC(C)C)cc1` [XLIVa], the Ki under setting [1] worked out at 400 nM.

Turning to `COc1ccc(S(=O)(=O)N(CC[C@H](O)CN2CCCC[C@H]2C(=O)NC(C)(C)C)CC(C)C)cc1` [XLVIII], the Ki under setting [1] stood at 3300 nM.

In the case of `CC(C)CN(C[C@@H](O)CCN(CC1CCCC1)S(=O)(=O)c1ccc(O)cc1)S(=O)(=O)c1ccc(O)cc1` [XLV], the inhibition constant Ki under setting [1] amounted to 160 nM.
